# Test results from patent publication US12247033B2, “Triazole-substituted imidazo[1,2-a]pyrimidines as cGAS inhibitors” (GlaxoSmithKline Intellectual Property Development Limited, priority 2022, dated 2025).
# pIC50: −log10 of the molar value. Structures can show the parent of a compound that is named as a salt.
# Columns and labels:
# [1] = system: CGAS; experiment: CGAS whole blood cytokine release assay (384-well, BacMam stimulation, IP-10 by cytometric bead array); format: cell-based; details: Homo sapiens, 6 h; read-out: hWB pXC50 (converted)
# Procedure: Blood collection: Blood was collected in a tube containing 10% Sodium Heparin (5 ml/45 ml blood final).
# Protocol for CGAS Whole Blood Cytokine Release Assay: Compounds serial diluted at 1:3 were provided at 150 nL per well, in a 384 well polypropylene microplate (cat. 781280; Greiner Bio-One, Frickenhausen, Germany). 5 μL of PBS/20% Null BacMam was dispensed to all wells except for column 18 on a Multidrop Combi (Thermo Scientific, Waltham, MA). 5 uL of PBS was dispensed into column 18. The Bravo (Agilent, Santa Clara, CA) was used to transfer 45 uL of donor derived blood into the compound plates. The Bravo protocol mixed the blood and compound/PBS 5 times. The plates were incubated at 37° C., 5% CO2, for 6 hours. At the 6 hour mark the plates were removed and centrifuged for 10 minutes at 3000 RPM. 3 uL of supernatant was transferred from the plate to a 384 well NBS microplate (cat. 4513; Corning Life Sciences, Corning, NY). These plates were sealed with adhesive foil and stored in a −80 freezer until ready for analysis.
# For cytokine detection, Human IP-10 BD cytometric bead array (CBA) beads (BD Biosciences, Franklin Lakes, NJ) were used. Capture bead solution was prepared by performing a 1:50 dilution of the IP-10 capture bead stock solution in BD diluent for serum/plasma (cat. 51-9003991 BD Biosciences, Franklin Lakes, NJ). 2 μL of this solution was added per well to the assay microplates which were then sealed with adhesive foil and incubated at room temperature for 2 h in the dark. Detection reagent was further prepared by performing a 1:50 dilution of the detection reagent stock solution. 2 μL of detection reagent was added per well and microplates were sealed with adhesive foil and incubated at room temperature in the dark for 1 h. After the 1 h incubation 3 uL of BD CBA wash buffer was added per well of the microplates. Data were acquired on an iQue Screener flow cytometer. The iQue used fluorescence detection to quantify the inhibition of IP-10 present in the sample wells. A sip time of 1 second per sample was used. The blue laser with excitation of 488 nm and emission filters 585/40 nm were used to capture the mean and median of IP-10 with the detector in logarithmic mode (FL2-H).
# All data analysis was carried out in IDBS ActivityBase XE.
# [2] = molecular target: human CGAS (157-522) (Homo sapiens, UniProt Q8N884); experiment: biochemical;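 also: biochemical enzyme reaction, 2′3′-cGAMP product measured by RapidFire mass spectrometry (MRM) normalised to c-di-UMP internal standard, inhibition of product formation relative to high and low control wells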
# Sequence of human CGAS (157-522) (Q8N884 157-522): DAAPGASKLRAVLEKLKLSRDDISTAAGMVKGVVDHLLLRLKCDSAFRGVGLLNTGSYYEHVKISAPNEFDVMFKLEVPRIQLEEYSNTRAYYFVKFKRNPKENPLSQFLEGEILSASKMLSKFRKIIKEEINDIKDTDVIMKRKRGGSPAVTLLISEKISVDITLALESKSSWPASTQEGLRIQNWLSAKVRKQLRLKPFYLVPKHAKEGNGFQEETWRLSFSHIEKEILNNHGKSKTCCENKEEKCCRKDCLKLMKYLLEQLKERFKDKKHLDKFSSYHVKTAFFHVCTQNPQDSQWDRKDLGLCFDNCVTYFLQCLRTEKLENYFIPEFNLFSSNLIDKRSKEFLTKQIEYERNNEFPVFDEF
# Procedure: Compounds were serially diluted 2, 3, or 4-fold in neat DMSO to generate 11-point dose response curves and then 250 nL compound or DMSO solution was transferred to Greiner 384-well V-bottom assay plates (Catalog #781280) using an Echo acoustic dispenser (Labcyte). A solution of 150 μM ATP, 150 μM GTP, 20 μM pppGpA (GTP-2′5′-AMP, custom synthesis from ChemGenes), and 10 μg/mL sheared salmon sperm DNA (Sigma, Catalog #D1626) in assay buffer (20 mM Trizma, pH 7.5, 10 mM magnesium chloride, 0.3 mM CHAPS, and 0.01% (w/v) bovine serum albumin) was added to columns 1-17, 19-24 of the plate at 12.5 μL/well using a Combi liquid handler (ThermoFisher). A 12.5 μL/well low control solution containing 150 μM ATP, 150 μM GTP, 20 μM pppGpA in assay buffer was added to column 18 using the Combi. A 12.5 μL/well solution of 10-100 nM human CGAS (157-522) in assay buffer was then added to all wells of the plate using the Combi. […] Reactions were quenched by added 50 μL/well of 0.5% (v/v) trifluoroacetic acid (TFA) in mass spectrometry grade deionized water containing 5 μM cyclic-di-UMP (ci-di-UMP; Invivogen Catalog #tlrl-cdu) as the internal standard (IS). Plates were centrifuged for 1 min and then quenched reactions were analyzed using a RF-MS 300 system operating in a Multiple Reaction Monitoring (MRM) detection mode.
# Samples (10 μL injection volume) were passed over a silica C18/type C solid phase extraction (SPE) cartridge for analyte (2′3′-cyclic guanosine monophosphate adenosine monophosphate (2′3′-cGAMP), product of biochemical reaction)/pppGpA/c-di-UMP IS adsorption. Adsorbed samples were desalted for 3000 ms using a 100% water eluent A/desalting solution. Afterwards, desalted samples were eluted using a 0.5% TFA in 20%/80% acetonitrile/water eluent B/elution solution directly into either a Sciex 4000, 5000 or 5500 triple quadrupole mass spectrometer (QQQ-MS) for MRM analyte/IS detection. QQQ-MS detection conditions were as follow: scan type: MRM; curtain (CUR) gas: 30 psi; nebulizer (GS1) gas: 50 psi; drying (GS2) gas: 60 psi; collisionally activated dissociation (CAD) gas: 12 relative setting; precursor ion (Q1) masses: 2′3′-cGAMP: m/z 675.1 Da/pppGpA: m/z 853.0 Da/c-di-UMP: m/z 613.1 Da; fragment ion (Q3) masses: 2′3′-cGAMP: m/z 524.1 Da/pppGpA: m/z 702.0 Da/c-di-UMP: 307.1 Da; declustering potentials (DPs): 2′3′-cGAMP: +81 V/pppGpA: +85 V/c-di-UMP: +85 V; entrance potential: +10 V (all analytes); collision energies (CEs): 2′3′-cGAMP: +33 V/pppGpA: +36 V/c-di-UMP: +35 V; collision cell exit potential (CXP): +10 V (all analytes); interface heater (Sciex 4000/5000 only): on; Q1 resolution: unit (all analyte); Q3 resolution: unit (all analytes). The area under the curve (AUC) for all analytes was obtained using the RapidFire Integrator software application to calculate AUC-2′3′-cGAMP/AUC-c-di-UMP intensity ratio. Percent product formation was calculated by comparison to column 6 (high control)/column 18 (low control) responses. The % product inhibition was calculated as follows:
# [formula] where A is the minimum response, B is the maximum response, C is the log10*XC50, D is the slope factor, and x is the log10 compound concentration [M] in ABASE XE.
IC50 [1] [nM],pIC50 [2],SMILES
63.1,8.40,"FC(F)c1n[nH]c(-c2nc3ncc(Cl)cn3c2-c2c[nH]cn2)n1 [Example 4, 5-[6-chloro-3-(1H-imidazol-4-yl)imidazo[1,2-a]pyrimidin-2-yl]-3-(difluoromethyl)-1H-1,2,4-triazole]"
501,8.40,"OCC(F)(F)c1ccn2c(-c3cnc[nH]3)c(-c3nc(C(F)(F)F)n[nH]3)nc2n1 [Example 6, 2,2-difluoro-2-[3-(1H-imidazol-5-yl)-2-[3-(trifluoromethyl)-1H-1,2,4-triazol-5-yl]imidazo[1,2-a]pyrimidin-7-yl]ethan-1-ol]"
1580,8.20,"FC(F)(F)c1n[nH]c(-c2nc3nc(Cl)ccn3c2-c2cnc[nH]2)n1 [Example 7, 5-[7-chloro-3-(1H-imidazol-5-yl)imidazo[1,2-a]pyrimidin-2-yl]-3-(trifluoromethyl)-1H-1,2,4-triazole, trifluoroacetic acid salt]"
200,8.50,"FC(F)c1ccn2c(-c3cnc[nH]3)c(-c3nc(C(F)F)n[nH]3)nc2n1 [Example 8, 3-(difluoromethyl)-5-[7-(difluoromethyl)-3-(1H-imidazol-5-yl)imidazo[1,2-a]pyrimidin-2-yl]-1H-1,2,4-triazole]"
1000,8.00,"CC(O)c1ccn2c(-c3cnc[nH]3)c(-c3nc(C(F)(F)F)n[nH]3)nc2n1 (stereo not shown) [Example 13, 1-[3-(1H-imidazol-5-yl)-2-[3-(trifluoromethyl)-1H-1,2,4-triazol-5-yl]imidazo[1,2-a]pyrimidin-7-yl]ethan-1-ol]"
5010,5.70,"O=C(O)CCOC(=O)OCn1cnc(-c2c(-c3nc(C(F)(F)F)nn3COC(=O)OCCC(=O)O)nc3ncccn23)c1 [Example 31, 3-({[(4-{2-[1-({[(2-carboxyethoxy)carbonyl]oxy}methyl)-3-(trifluoromethyl)-1H-1,2,4-triazol-5-yl]imidazo[1,2-a]pyrimidin-3-yl}-1H-imidazol-1-yl)methoxy]carbonyl}oxy)propanoic acid, trifluoroacetic acid salt]"
1000,8.10,"Fc1cnc2nc(-c3nc(C(F)(F)F)n[nH]3)c(-c3cn[nH]c3)n2c1 [Example 38, 5-[6-fluoro-3-(1H-pyrazol-4-yl)imidazo[1,2-a]pyrimidin-2-yl]-3-(trifluoromethyl)-1H-1,2,4-triazole]"
5010,–,"O=C(COCc1cnc2nc(-c3nc(C(F)(F)F)n[nH]3)c(-c3c[nH]cn3)n2c1)N1CCCC1 [Example 147, 2-{[3-(1H-imidazol-4-yl)-2-[3-(trifluoromethyl)-1H-1,2,4-triazol-5-yl]imidazo[1,2-a]pyrimidin-6-yl]methoxy}-1-(pyrrolidin-1-yl)ethan-1-one]"
3980,–,"FC(F)(F)c1n[nH]c(-c2nc3ncc(COCCn4cc(Cl)cn4)cn3c2-c2c[nH]cn2)n1 [Example 151, 5-(6-{[2-(4-chloro-1H-pyrazol-1-yl)ethoxy]methyl}-3-(1H-imidazol-4-yl)imidazo[1,2-a]pyrimidin-2-yl)-3-(trifluoromethyl)-1H-1,2,4-triazole]"
794,–,"CCCOCCOCc1cnc2nc(-c3nc(C(F)(F)F)n[nH]3)c(-c3c[nH]cn3)n2c1 [Example 153, 5-[3-(1H-imidazol-4-yl)-6-[(2-propoxyethoxy)methyl]imidazo[1,2-a]pyrimidin-2-yl]-3-(trifluoromethyl)-1H-1,2,4-triazole]"
6310,–,"OCC1CN(Cc2ccn3c(-c4c[nH]cn4)c(-c4nc(C(F)(F)F)n[nH]4)nc3n2)C1 [Example 164, (1-{[3-(1H-imidazol-4-yl)-2-[3-(trifluoromethyl)-1H-1,2,4-triazol-5-yl]imidazo[1,2-a]pyrimidin-7-yl]methyl}azetidin-3-yl)methanol]"

# The remaining lines, values behind:
SMILES,IC50 [1] [nM],pIC50 [2]
"FC(F)(F)c1ccn2c(-c3cnc[nH]3)c(-c3nc(C(F)(F)F)n[nH]3)nc2n1 [Example 3, 5-[3-(1H-imidazol-5-yl)-7-(trifluoromethyl)imidazo[1,2-a]pyrimidin-2-yl]-3-(trifluoromethyl)-1H-1,2,4-triazole]",794,8.20
"Fc1cnc2nc(-c3nc(C(F)F)n[nH]3)c(-c3c[nH]cn3)n2c1 [Example 5, 3-(difluoromethyl)-5-[6-fluoro-3-(1H-imidazol-4-yl)imidazo[1,2-a]pyrimidin-2-yl]-1H-1,2,4-triazole]",200,8.60
"FC(F)(F)c1n[nH]c(-c2nc3nc4c(cn3c2-c2c[nH]cn2)COC4)n1 [Example 10, 12-(1H-imidazol-4-yl)-11-[3-(trifluoromethyl)-1H-1,2,4-triazol-5-yl]-5-oxa-1,8,10-triazatricyclo[7.3.0.0^3, ^7] dodeca-2,7,9,11-tetraene, 0.2 trifluoroacetic acid salt]",126,8.20
"CC(=O)c1ccn2c(-c3cnc[nH]3)c(-c3nc(C(F)(F)F)n[nH]3)nc2n1 [Example 14, 1-[3-(1H-imidazol-5-yl)-2-[3-(trifluoromethyl)-1H-1,2,4-triazol-5-yl]imidazo[1,2-a]pyrimidin-7-yl]ethan-1-one]",63.1,8.00
"FC(F)(F)c1n[nH]c(-c2nc3ncc(CC4CCCCC4)cn3c2-c2cnc[nH]2)n1 [Example 15, 5-[6-(cyclohexylmethyl)-3-(1H-imidazol-5-yl)imidazo[1,2-a]pyrimidin-2-yl]-3-(trifluoromethyl)-1H-1,2,4-triazole, trifluoroacetic acid salt]",> 31600,8.00
"FC(F)(F)c1n[nH]c(-c2nc3ncc(C4CCCC4)cn3c2-c2cnc[nH]2)n1 [Example 16, 5-[6-cyclopentyl-3-(1H-imidazol-5-yl)imidazo[1,2-a]pyrimidin-2-yl]-3-(trifluoromethyl)-1H-1,2,4-triazole, trifluoroacetic acid salt]",3160,8.40
"COCC(F)(F)c1ccn2c(-c3cnc[nH]3)c(-c3nc(C(F)(F)F)n[nH]3)nc2n1 [Example 19, 5-[7-(1,1-difluoro-2-methoxyethyl)-3-(1H-imidazol-5-yl)imidazo[1,2-a]pyrimidin-2-yl]-3-(trifluoromethyl)-1H-1,2,4-triazole]",398,8.20
"CSc1ccn2c(-c3cnc[nH]3)c(-c3nc(C(F)(F)F)n[nH]3)nc2n1 [Example 21, 5-[3-(1H-imidazol-5-yl)-7-(methylsulfanyl)imidazo[1,2-a]pyrimidin-2-yl]-3-(trifluoromethyl)-1H-1,2,4-triazole]",631,8.30
"CS(=O)(=O)c1cnc2nc(-c3nc(C(F)(F)F)n[nH]3)c(-c3cnc[nH]3)n2c1 [Example 22, 5-[3-(1H-imidazol-5-yl)-6-methanesulfonylimidazo[1,2-a]pyrimidin-2-yl]-3-(trifluoromethyl)-1H-1,2,4-triazole]",7940,7.60
"O=C(CCCOP(=O)(O)O)OCn1cnc(-c2c(-c3nc(C(F)(F)F)nn3COC(=O)CCCOP(=O)(O)O)nc3ncccn23)c1 [Example 30, {4-oxo-4-[(5-{3-[1-({[4-(phosphonooxy)butanoyl]oxy}methyl)-1H-imidazol-4-yl]imidazo[1,2-a]pyrimidin-2-yl}-3-(trifluoromethyl)-1H-1,2,4-triazol-1-yl)methoxy]butoxy}phosphonic acid, trifluoroacetic acid salt]",1260,6.50
"O=C(O)CCOC(=O)OCn1nc(C(F)(F)F)nc1-c1nc2ncccn2c1-c1cnc[nH]1 [Example 33, 3-{[({5-[3-(1H-imidazol-5-yl)imidazo[1,2-a]pyrimidin-2-yl]-3-(trifluoromethyl)-1H-1,2,4-triazol-1-yl}methoxy)carbonyl]oxy}propanoic acid, 2 trifluoroacetic acid salt]",501,6.50
"Cc1ccn(CCOCc2cnc3nc(-c4nc(C(F)(F)F)n[nH]4)c(-c4c[nH]cn4)n3c2)n1 [Example 148, 5-[3-(1H-imidazol-4-yl)-6-{[2-(3-methyl-1H-pyrazol-1-yl)ethoxy]methyl}imidazo[1,2-a]pyrimidin-2-yl]-3-(trifluoromethyl)-1H-1,2,4-triazole]",3980,–
"O=C(COCc1cnc2nc(-c3nc(C(F)(F)F)n[nH]3)c(-c3c[nH]cn3)n2c1)N1CCCCC1 [Example 152, 2-{[3-(1H-imidazol-4-yl)-2-[3-(trifluoromethyl)-1H-1,2,4-triazol-5-yl]imidazo[1,2-a]pyrimidin-6-yl]methoxy}-1-(piperidin-1-yl)ethan-1-one]",2510,–
"Fc1cnc2nc(-c3nc(Br)n[nH]3)c(-c3c[nH]cn3)n2c1 [Example 159, 3-bromo-5-[6-fluoro-3-(1H-imidazol-4-yl)imidazo[1,2-a]pyrimidin-2-yl]-1H-1,2,4-triazole]",200,–
